We go through 71 molecules from ChEMBL document CHEMBL3507680, “University of Dundee, Gates Library screen for HepG2 cell viability”.

The data set can be described thus: Human HepG2 cell viability assay in 384 well format. It counts as toxicity, cell-based. Set-up: dose 125 nL, time 70.5 hour; cytotoxicity at 70.5 h: concentration not given beside the values. The note with it: HepG2 cells, read-out: Inhibition.
With `Cc1cc(C)c2c(N3CCCN(C(=O)C4CCC4)CC3)ncnc2n1`, the cytotoxicity at 70.5 h was -6.75%. The figure for `Cn1cnc2cc(C(=O)N3CCC(c4ccccc4C(=O)O)C3)cnc21` (stereo unspecified) is -8.01%; for `Cc1ccc2cc(C(=O)N3CCC(Nc4cccnn4)CC3)[nH]c2c1` it is 21.4%; for `Cc1ccc(CNC[C@H]2Cn3cc(-c4ccccc4)nc3CO2)cc1` it is -4.13%.

Take `COc1ccc(SCC2CNc3nc4ccccc4c(=O)n32)cc1` (stereo unspecified): the cytotoxicity at 70.5 h came to 1.56%. For the molecule `CN(C)CCCNC(=O)c1ccccc1NC(=O)c1cc(Cl)ccc1Cl`, the cytotoxicity at 70.5 h was -13.9%. The same measure for `CC(=O)NCC(=O)N1CCC(C2CCN(Cc3ccc(Cl)cc3)C2)CC1` (stereo unspecified): -2.13%; for `O=C(Nc1cccnc1)[C@H]1C[C@H]2OCC[C@H]2N(CC2CC2)C1`: -14.8%. The same measure for `O=C(COc1ccc2c(c1)CCC2)N1CCCC1c1ccc[nH]1` (stereo unspecified): -23.1%; for `CC(C)n1nc2c(cc1=O)CN(c1ncnc3sccc13)CC2`: -10.1%. In the case of `CCc1ccc(C(=O)N2CCCCC2CNS(C)(=O)=O)o1` (stereo unspecified), the cytotoxicity at 70.5 h is -2.32%.

For the molecule `COCCOc1ccccc1CNCc1c(C)nn(C)c1N(C)C`, the cytotoxicity at 70.5 h was -0.188%. As to `Cc1nn(C)cc1S(=O)(=O)N(CCc1ccccc1)Cc1ccn(C)n1`, the cytotoxicity at 70.5 h is -4.26%. Regarding `CCc1cnc(N2CC3(CCN(Cc4ccsc4)C3)C2)nc1`, the cytotoxicity at 70.5 h was 18.4%. The same measure for `COCCOCC(=O)N1CCC(O)(c2ccc3nc(C)ccc3c2)CC1`: -5.95%; for `Cc1cc(NC(=O)CCN2CCCC2Cn2cccn2)no1` (stereo unspecified): -6.26%.

With `C[C@H]1C[C@@H]2CCN(C(=O)c3ccncn3)C[C@H]2O1`, the cytotoxicity at 70.5 h is -0.838%. On to `COc1ccc(C(=O)N2C[C@@H](C(=O)O)[C@H](c3ccccc3)C2)c(O)c1`, for which the cytotoxicity at 70.5 h is -8.78%. `CN1CCN(Cc2cccnc2)Cc2cccnc21`: the cytotoxicity at 70.5 h is -7.13%.

In the case of `COC1CN(C(=O)Cc2cccs2)CCC(=O)N(C)c2ccccc21` (stereo unspecified), the cytotoxicity at 70.5 h was 2.17%. As for `CC(C)c1nc2c(n1C)CCN(CC(=O)Nc1cccnc1)C2`, the cytotoxicity at 70.5 h was -9.65%. As to `O=C(c1ccc[nH]1)N1CCC2(CC1)COCCN(c1nccs1)C2`, the cytotoxicity at 70.5 h is -1.47%. As to `c1ccc(O[C@H]2C[C@@H]3CN(Cc4cnccn4)C[C@@H]3C2)cc1`, the cytotoxicity at 70.5 h was -0.72%.

Take `CCO[C@H]1CN(C)C[C@@H]1NC(=O)c1cc(C)nc2ccc(C)cc12`: the cytotoxicity at 70.5 h is -6.33%. As for `CN(C)C(=O)c1cnc2n1CCN(Cc1ccncc1)C2`, the cytotoxicity at 70.5 h is 19.9%. Regarding `Cc1ccccc1-c1noc(CN2CCC(N3CCNC3=O)CC2)n1`, the cytotoxicity at 70.5 h turned out to be 40.4%. In the case of `Cc1ccc(CC(=O)N2CCOC(c3nc(C)n[nH]3)C2)cn1` (stereo unspecified), the cytotoxicity at 70.5 h was -4.16%.

`Cc1oc(-c2nc(C#N)c(N(C)C)o2)cc1S(=O)(=O)N1CCCCCC1`: the cytotoxicity at 70.5 h is 12.8%. As to `Cc1ccsc1CN1CCn2c(COc3cccnc3)cnc2C1C` (stereo unspecified), the cytotoxicity at 70.5 h was -9.93%. The figure for `COCCN1CCC(CNC(=O)C2(C#N)CCCCC2)CC1` is -8.47%. Turning to `CCC(=O)NC1CCN(c2cccc(OC(F)(F)F)c2)C1=O` (stereo unspecified), the cytotoxicity at 70.5 h was -2.63%. On to `CC(Nc1ncnc2sccc12)c1cnn(C)c1` (stereo unspecified), for which the cytotoxicity at 70.5 h was -12.3%.

For `CNc1cccc(C2CCCN(Cc3ncc[nH]3)C2)n1` (stereo unspecified), the cytotoxicity at 70.5 h is -2.87%.

`Cc1nnc(C2CCN(c3ccc(F)cc3)CC2)o1`: the cytotoxicity at 70.5 h is -9.58%. For `O=C1NC2(Cc3ccccc31)CN(CC1CCNCC1)C2`, the cytotoxicity at 70.5 h was 12.6%. On to `Cc1ccsc1C(=O)N1CCc2ncc(Cn3cccn3)n2CC1`, for which the cytotoxicity at 70.5 h was -6.33%. `O=C(NCCN1CCc2ccccc21)c1cc(-c2ccc(O)cc2)n[nH]1`: the cytotoxicity at 70.5 h came out at 46.5%. In the case of `Cc1ccc(-n2cc(C(=O)NCc3nnc4n3CCCCC4)nn2)cc1`, the cytotoxicity at 70.5 h was -3.85%. Take `CN(CC1COc2ccccc2O1)C(=O)NCCCn1cncn1` (stereo unspecified): the cytotoxicity at 70.5 h is -4.69%. Consider `CN1CC(=O)N(C2CCC2)Cc2c(NC3CCNCC3)ncnc21`, for which the cytotoxicity at 70.5 h is -3.78%. The same measure for `Cc1ccc(N2CCCC(c3[nH]ncc3Cc3ccccc3)C2)nn1` (stereo unspecified): 7.65%. As to `Cc1nc(CN2CCCC2c2c(C)nn(C)c2Cl)oc1C` (stereo unspecified), the cytotoxicity at 70.5 h stood at 19.6%. On to `COc1ccnc(CNc2nc(C)nc(C)c2C)c1`, for which the cytotoxicity at 70.5 h came out at 3%. For the molecule `CN(Cc1ccco1)Cc1ccccc1CNC(=O)c1ccc[nH]1`, the cytotoxicity at 70.5 h is -9.87%. With `N[C@@H]1CCC[C@@H](Oc2ccc(F)cc2Oc2cccc(F)c2)[C@@H]1O`, the cytotoxicity at 70.5 h was -1.82%.

Consider `CCc1ccc(S(=O)(=O)Nc2c(C)cccc2C(=O)O)s1`, for which the cytotoxicity at 70.5 h is 18.4%. Consider `Cc1cnn(CC2CCCN2Cc2ncc(-c3ccccc3)o2)c1` (stereo unspecified), for which the cytotoxicity at 70.5 h is -18.8%. Regarding `Cc1ccc(C2CCCN2S(=O)(=O)N(C)Cc2cnn(C)c2)o1` (stereo unspecified), the cytotoxicity at 70.5 h amounted to 13.3%. As to `O=C(c1ccc[nH]1)N1CCn2cc(CN3CCCC3)nc2C1`, the cytotoxicity at 70.5 h is -8.96%. The figure for `Cc1csc(N2CCCN(C(=O)C3(C#N)CCCCC3)CC2)n1` is -9.35%. For `COc1c(C)cnc(CN2CCCCC2CCN2CCOCC2)c1C` (stereo unspecified), the cytotoxicity at 70.5 h was -11.7%. On to `Cc1nn2c(NCC(N)=O)cc(-c3ccccc3)nc2c1C`, for which the cytotoxicity at 70.5 h came to 15.2%. Turning to `O=C(CSC(F)(F)F)N1CCC2(CCCN(C3CCOCC3)C2=O)C1` (stereo unspecified), the cytotoxicity at 70.5 h stood at 15%. Regarding `CN(CC(N)=O)C(=O)C1Cc2cc(Cl)ccc2O1` (stereo unspecified), the cytotoxicity at 70.5 h is -5.33%. `COc1ccc(OC)c(CNCCc2cc(F)cc3c2OCOC3)c1`: the cytotoxicity at 70.5 h was found to be 9.35%.

As for `CC(C)NC(=O)Cn1ccc2c(Cl)cccc21`, the cytotoxicity at 70.5 h is -19%. In the case of `O=C(NC1CC1)C1CCN(c2nc3nc[nH]c(=O)c3s2)CC1`, the cytotoxicity at 70.5 h is -20.8%. For the molecule `c1ccc(-c2cnc3n2CCNC32CCNCC2)cc1`, the cytotoxicity at 70.5 h came to 43.5%.

`N#Cc1ccccc1OCCN1CCCCC1C(=O)N1CCOCC1` (stereo unspecified): the cytotoxicity at 70.5 h came out at 7.77%.

With `CN1CCN(c2cc(CNC(=O)c3ccc(=O)[nH]n3)ccn2)CC1`, the cytotoxicity at 70.5 h was -21.2%. With `COCCN1CCC(c2nc3ccc(N4CCCC4)cn3n2)CC1`, the cytotoxicity at 70.5 h was -8.32%. With `CC(C)c1n[nH]c(C2CN(C(=O)CCn3ccccc3=O)CCO2)n1` (stereo unspecified), the cytotoxicity at 70.5 h was -2.51%. As for `CCOCC(=O)N1C[C@@H](NC(C)=O)[C@H](c2ccc(OC)cc2)C1`, the cytotoxicity at 70.5 h was -8.31%. Take `Cc1ccc(NCc2ccc(C#N)cc2)cc1-n1cnnn1`: the cytotoxicity at 70.5 h was determined as 10.5%. Regarding `Cc1ccc(N2CC3(COCCN(Cc4ccncc4)C3)OCC2=O)s1` (stereo unspecified), the cytotoxicity at 70.5 h was found to be 3.84%.

As to `[O-][S+](Cc1c(F)cccc1Cl)Cc1nnnn1C1CC1` (stereo unspecified), the cytotoxicity at 70.5 h was -14.6%.

On to `O=S(=O)(c1cccnc1)N1CCN(CC(O)c2cccs2)CC1` (stereo unspecified), for which the cytotoxicity at 70.5 h is -1.48%. As to `COC(=O)[C@H](C)NC(=O)c1cc(-c2cccc(Cl)c2)no1`, the cytotoxicity at 70.5 h is 2%. On to `CC(C)c1nccn1C1CCCN(C(=O)CCc2cscn2)C1` (stereo unspecified), for which the cytotoxicity at 70.5 h was -6.33%. The figure for `CC(C)C(=O)NS(=O)(=O)c1ccc(F)c(C(F)(F)F)c1` is -10.6%; for `O=C(c1cnccn1)N1CC(S(=O)(=O)c2ccc(Cl)cc2)C1` it is -4.33%.
